Data taken from article PMC4912613, “A broad analysis of resistance development in the malaria parasite” (Nature Communications, 2016).

Experiments:
[1] = tested on: NITD609-R2 (PfATP4 T418N and P990R, parent Dd2); assay: Cross-resistance EC50 assay, NITD609-R2; format: cell-based; settings: Plasmodium falciparum, SYBR green 72 hour assay, asynchronized parasites, 96-well or 1536-well format
Excerpt: (§1) To evaluate potential overlapping activity against known antimalarial drug targets, we performed dose-response studies with each compound against our assembled set of drug-resistant lines and their corresponding parents, in an asexual blood stage proliferation assay (Table 1). Comparisons were made to the drug-sensitive strain 3D7 when a parent was unavailable (TM90C2A, W2 and Dd2). As laboratories conducted EC50 assays with different strains and protocols, all comparisons were made between assays from the same laboratory and under the same assay conditions. Compounds displaying >5-fold EC50 shifts relative to the parent or sensitive strain were flagged as having potentially non-novel targets. Average fold shifts per strain ranged from 0.82 to 2.34, with a median of 1.23 indicating there was not common resistance to any one resistant clone. No resistance patterns were observed when classifying the compounds based on chemical structure, but this was not surprising given the diversity of compounds chosen. On the other hand, given that these confirmed compounds were derived from larger unconfirmed hit lists to which some filtration criteria may have been applied (for example, elimination of obvious dihydrofolate reductase inhibitors[32]), some[10][11][12][13] pre-existing bias may exist in the set. […]
(§2) Alternatively, a SYBR Green-based proliferation approach was used for the 72-h assay, as previously described. Briefly, a culture of either synchronized or asynchronous parasitized RBCs (0.3% parasitemia and 4% haematocrit) in screening medium (identical to supplemented medium above except no serum was added) was exposed to serial drug dilutions. Plates were incubated at 37 °C and gassed with 93% N2, 4% CO2 and 3% O2 for 72 h. Following incubation, 10 × SYBR Green I (Invitrogen; supplied in 10,000 × concentration) in lysis buffer ([…], 5 mM EDTA, 0.16% Saponin wt per vol and 1.6% Triton X vol per vol) was added to the wells and the plates were incubated overnight at room temperature before plate reading. EC50 assays were repeated three times, taking the average EC50 value from each assay set, and removing any outliers using a single iteration of Grubbs' test, eliminating values with z-scores above the critical z-value (α=0.05). The raw EC50 values for synchronized parasites assayed in a 384-well format are listed in Supplementary Data 4. The raw EC50 values for asynchronous parasites assayed in a 96 or 1536-well format are listed in Supplementary Data 5.
(§3) EC50 values for each strain were compared with those of the corresponding parent strain to determine fold-shift changes and identify resistance. To minimize the cause variance between assays, all comparisons were conducted between strains assayed under identical conditions. A one-way ANOVA followed by a Dunnet's post-test was conducted in GraphPad Prism to identify significant changes between the parent and resistant strain.

[2] = tested on: PfCRT-Q352R (parent Dd2); assay: Cross-resistance EC50 assay, PfCRT-Q352R; format: cell-based; settings: Plasmodium falciparum, DD2, 72 h, read-out: PfCRT:Q352R (Dd2 Parent) Average EC50
Excerpt: as §1, §2, §3

[3] = tested on: hsp90 (D88Y, parent Dd2); assay: Cross-resistance EC50 assay, hsp90; format: cell-based; settings: Plasmodium falciparum, SYBR green 72 hour assay, synchronized parasites, 384-well format
Excerpt: as §1, §2, §3

[4] = tested on: W2; assay: Cross-resistance EC50 assay, W2 parent; format: cell-based, Plasmodium falciparum; settings: Plasmodium falciparum, 48 h, read-out: W2F6 (PARENT) Average EC50
Excerpt: Multidrug resistance alleles, including mutations in P. falciparum chloroquine resistance transporter (pfcrt) and P. falciparum multi-drug resistance transporter 1 (pfmdr1) are very common in field isolates. Therefore, we sought to assess the degree to which pre-existing resistance alleles would contribute to a loss of potency for this diverse collection of small molecule compounds. Fifteen clones derived from three main parent lines were chosen to maximize diversity in mutated pathways and genetic backgrounds, thus representing the variety of resistance seen in the field: 3D7 (ref. [23]), W2 (ref. [24]) or Dd2 (ref. [25]). The 3D7 line originates from the clone of a Netherlands clinical isolate strain[23][26] and is generally considered to be drug sensitive, though it does convey resistance to sulfadoxine. Conversely, W2 (ref. [24], [27]) and Dd2 (ref. [25]) are multi-drug-resistant lines originating from the Indochina III/CDC isolate, which contain point mutations in pfcrt as well as amplifications in pfmdr1 and GTP cyclohydrolase.
To evaluate potential overlapping activity against known antimalarial drug targets, we performed dose-response studies with each compound against our assembled set of drug-resistant lines and their corresponding parents, in an asexual blood stage proliferation assay (Table 1). Comparisons were made to the drug-sensitive strain 3D7 when a parent was unavailable (TM90C2A, W2 and Dd2). As laboratories conducted EC50 assays with different strains and protocols, all comparisons were made between assays from the same laboratory and under the same assay conditions. Compounds displaying >5-fold EC50 shifts relative to the parent or sensitive strain were flagged as having potentially non-novel targets. Average fold shifts per strain ranged from 0.82 to 2.34, with a median of 1.23 indicating there was not common resistance to any one resistant clone. No resistance patterns were observed when classifying the compounds based on chemical structure, but this was not surprising given the diversity of compounds chosen. On the other hand, given that these confirmed compounds were derived from larger unconfirmed hit lists to which some filtration criteria may have been applied (for example, elimination of obvious dihydrofolate reductase inhibitors[32]), some[10][11][12][13] pre-existing bias may exist in the set.
The 48-h assay was carried out in a 96-well format following standard methods using the ^3H-hypoxanthine incorporation assay. The raw EC50 values corresponding to this assay can be found in Supplementary Data 3. Briefly, this assay relies on the parasite incorporation of labelled hypoxanthine that is proportional to P. falciparum growth. A culture of parasitized RBCs (0.5% parasitemia with a percentage of ring stage higher than 70% of total parasitemia, 2.0% haematocrit) in RPMI-1640, […] and 5 μM hypoxanthine was exposed to drug serial dilutions. Plates were incubated for 24 h at 37 °C, 5% CO2, 5% O2 and 90% N2. After 24 h of incubation, ^3H-hypoxanthine was added and plates were incubated for an additional 24-h period. After that, parasites were harvested on a glass fibre filter using a TOMTEC Cell Harvester 96. Filters were dried and melt-on scintillator sheets were used to determine the incorporation of ^3H-hypoxanthine. Radioactivity was measured using a microbeta counter. Data were normalized using the incorporation of the positive (parasitized RBCs without drug) and negative (same culture with artesunate at 2 μM) controls. All assays were conducted in triplicate using three independently grown cultures, and EC50 values were determined using the XLfit add-in module for Excel (version 2.3.1) from Grafit (version 5.3.1.3), where parameter h is the assay hill slope, x is the compound concentration and y is the inhibition of growth effect. The XLfit equation is: […]
Alternatively, a SYBR Green-based proliferation approach was used for the 72-h assay, as previously described. […]

COc1ccc(NC(=O)N2CCCCN3[C@H](CN)[C@H](c4ccc(C#Cc5ccccc5)cc4)[C@@H]3C2)cc1 [BRD1095]
EC50 [1]: 0.001 µM
EC50 [2]: 12 nM
EC50 ([3]; DD2, HSP90 strain): 17 nM

CCN(CC)CCn1c(=N)n(CC(O)c2ccc(Cl)c(Cl)c2)c2ccccc21.Cl (centres unmarked) [MMV000248]
EC50 [1]: 0.252 µM
EC50 [2]: 329 nM
EC50 ([3]; strain HSP90 (Dd2 parent)): 328 nM
EC50 [4]: 605 nM

CCOc1cc2c(cc1OCC)C(c1cc(Cl)ccc1O)NCC2 (centres unmarked) [MMV000478]
EC50 [1]: 0.661 µM
EC50 [2]: 785 nM
EC50 ([3]; strain HSP90 (Dd2 parent)): 1050 nM
EC50 [4]: 172 nM

CCCOCc1cc(CN2CCN(c3cccc(Cl)c3)CC2)c(O)c2ncccc12 [MMV000787]
EC50 [1]: 1.25 µM
EC50 [2]: 699 nM
EC50 ([3]; strain HSP90 (Dd2 parent)): 476 nM
EC50 [4]: 792 nM

CN1CCN(c2ccc(Nc3c4ccccc4nc4ccccc34)cc2)CC1 [MMV006172]
EC50 [1]: 0.242 µM
EC50 [2]: 75 nM
EC50 ([3]; strain HSP90 (Dd2 parent)): 139 nM
EC50 [4]: 227 nM

CCCN(CCC)CC(O)COc1ccccc1C(=O)Nc1ccccc1 (centres unmarked) [MMV006455]
EC50 [1]: 0.258 µM
EC50 [2]: 1220 nM
EC50 ([3]; strain HSP90 (Dd2 parent)): 2060 nM
EC50 [4]: 106 nM

COc1cc2cc(C(=O)Nc3ccccc3)c(N)nc2cc1OC [MMV006767]
EC50 [1]: 0.106 µM
EC50 [2]: 1480 nM
EC50 ([3]; strain HSP90 (Dd2 parent)): 3100 nM
EC50 [4]: 1820 nM

Cc1cc(Nc2ccc(OCc3ccccc3)cc2)nc2cc(O)ccc12 [MMV007181]
EC50 [1]: 0.128 µM
EC50 [2]: 133 nM
EC50 ([3]; strain HSP90 (Dd2 parent)): 120 nM
EC50 [4]: 34 nM

Brc1ccc(Nc2nc3ccccc3nc2Nc2ccc(Br)cc2)cc1 [MMV007224]
EC50 [1]: 0.754 µM
EC50 [2]: 287 nM
EC50 ([3]; strain HSP90 (Dd2 parent)): 247 nM
EC50 [4]: 288 nM

Cc1ccc(Cn2c(N3CCC(C(=O)NCc4cccs4)CC3)nc3ccccc32)cc1 [MMV007564]
EC50 [1]: 0.705 µM
EC50 [2]: 430 nM
EC50 ([3]; strain HSP90 (Dd2 parent)): 710 nM
EC50 [4]: 503 nM

Cc1c(C)n(Cc2ccc(F)cc2)c2ccc(C(=O)NCc3ccco3)cc12 [MMV008149]
EC50 [1]: 0.934 µM
EC50 [2]: 139 nM
EC50 ([3]; strain HSP90 (Dd2 parent)): 191 nM
EC50 [4]: 805 nM

OC(CNC1CCCCC1)Cn1c2ccccc2c2ccccc21 (centres unmarked) [MMV009063]
EC50 [1]: 0.411 µM
EC50 [2]: 315 nM
EC50 ([3]; strain HSP90 (Dd2 parent)): 286 nM
EC50 [4]: 126 nM

CCN(CC)S(=O)(=O)c1ccc(-c2csc(Nc3ccc(C)c(C)c3)n2)cc1 [MMV009108]
EC50 [1]: 0.574 µM
EC50 [2]: 404 nM
EC50 ([3]; strain HSP90 (Dd2 parent)): 512 nM
EC50 [4]: 378 nM

COC(=O)c1ccc(C2C3=C(O)CC(c4ccc(F)cc4)CC3=Nc3ccccc3N2C(=O)c2ccccc2)cc1 (centres unmarked) [MMV011438]
EC50 [1]: 0.306 µM
EC50 [2]: 174 nM
EC50 ([3]; strain HSP90 (Dd2 parent)): 127 nM
EC50 [4]: 644 nM

Nc1ccc(-c2nc3cc(Oc4ccc(Oc5ccc6[nH]c(-c7ccc(N)cc7)nc6c5)cc4)ccc3[nH]2)cc1 [MMV011895]
EC50 [1]: 0.56 µM
EC50 [2]: 206 nM
EC50 ([3]; strain HSP90 (Dd2 parent)): 311 nM
EC50 [4]: 279 nM

COCCNCC(O)Cn1c2ccc(Cl)cc2c2cc(Cl)ccc21 (centres unmarked) [MMV019017]
EC50 [1]: 0.456 µM
EC50 [2]: 582 nM
EC50 ([3]; strain HSP90 (Dd2 parent)): 614 nM
EC50 [4]: 138 nM

COc1ccccc1CNC(=O)CCn1c(=O)[nH]c2ccsc2c1=O [MMV019066]
EC50 [1]: 0.014 µM
EC50 [2]: 63 nM
EC50 ([3]; strain HSP90 (Dd2 parent)): 15 nM
EC50 [4]: 1270 nM

Cl.c1ccc2c(NCCCCCCNc3c4c(nc5ccccc35)CCCC4)c3c(nc2c1)CCCC3 [MMV019555]
EC50 [1]: 0.188 µM
EC50 [2]: 166 nM
EC50 ([3]; strain HSP90 (Dd2 parent)): 198 nM
EC50 [4]: 491 nM

COc1ccc(N2CCN(C(CNC(=O)C3CCCCC3)c3ccc4c(c3)OCO4)CC2)cc1 (centres unmarked) [MMV019662]
EC50 [1]: 0.512 µM
EC50 [2]: 356 nM
EC50 ([3]; strain HSP90 (Dd2 parent)): 790 nM
EC50 [4]: 428 nM

COc1ccc(-c2nc(NC(=O)Cc3ccc4c(c3)OCCO4)sc2C)cc1 [MMV019719]
EC50 [1]: 0.328 µM
EC50 [2]: 244 nM
EC50 ([3]; strain HSP90 (Dd2 parent)): 281 nM
EC50 [4]: 143 nM

Cc1ccc(Oc2ncccc2C(=O)Cc2cccc3cccnc23)c(C)c1 [MMV020746]
EC50 [1]: 2.14 µM
EC50 [2]: 142 nM
EC50 ([3]; strain HSP90 (Dd2 parent)): 200 nM
EC50 [4]: 247 nM

c1cc(-c2cnc3ccc(-c4ccc(N5CCOCC5)cc4)nn23)ccn1 [MMV668311]
EC50 [1]: 0.016 µM
EC50 [2]: 63 nM
EC50 [4]: 29 nM
